Experimental data: the NIST ThermoML archive (doi:10.1016/j.jct.2017.10.014)

Assay: xn = mol fraction of the nth substance listed
Settings: 100 kPa, Liquid, Vibrating tube method

CC(C)(CO)[C@@H](O)C(=O)NCCCO [d-Panthenol] + O
mass density [kg/m3]
Settings	298.15 K	303.15 K	308.15 K	313.15 K
x1 = 0.0036	–	1002.18	1000.46	998.5
x1 = 0.0054	–	1005.33	1003.56	1001.53
x1 = 0.0071	–	1008.35	1006.55	1004.49
x1 = 0.0089	–	1011.34	1009.5	1007.4
x1 = 0.0107	–	1014.32	1012.45	1010.32
x1 = 0.0124	–	1017.07	1015.14	1012.99
x1 = 0.0142	–	1019.84	1017.89	1015.72
x1 = 0.0248	–	1035.87	1033.67	1031.28
x1 = 0.031	–	1044.71	1042.43	1039.83
x1 = 0.0376	–	1051.55	1049.07	1046.45
x1 = 0.0501	–	1064.45	1062.19	1059.96
x1 = 0.0996	–	1096.7	1093.45	1090.55
x1 = 0.1997	–	1127.26	1123.64	1119.93
x1 = 0.2495	–	1134.68	1130.9	1127.21
x1 = 0.2871	–	1139.2	1135.41	1131.52
x1 = 0.342	–	1143.4	1139.69	1135.87
x1 = 0.4007	–	1146.9	1143.02	1139.25
x1 = 0.4958	1154.87	1151.08	1147.04	1143.29
x1 = 0.5944	1157.16	1153.51	1149.72	1145.77
x1 = 0.708	1159.25	1155.76	1152.16	1148.24
x1 = 0.8067	1160.22	1156.74	1153.27	1149.57
x1 = 0.8753	1160.86	1157.46	1153.96	1150.3
x1 = 1	1161.68	1158.27	1154.96	1151.46
